From US20070196886A1 (priority 2004, published 2007)
Read-outs that look alike come from different tables or passages of the source.

How the values were obtained:
[1] = target: T1, RNAP holoenzyme (Escherichia coli, UniProt P0A8T7+P0A8V2); test: Electrophoretic mobility shift assays (open-complex formation); format: biochemical; conditions: MccJ25 at 1, 10, or 100 μM; lacUV5 promoter
Description: Following 15 min at 37° C., 0.5 μl 1 mg/ml heparin was added (to disrupt non-specific complexes), and, following a further 2 min at 37° C., reaction mixtures were applied to 5% polyacrylamide slab gels (30:1 acrylamide/bisacrylamide; 6×9×0.1 cm) and electrophoresed in 90 mM Tris-borate (pH 8.0) and 0.2 mM EDTA (20 V/cm; 30 min at 37° C.) and analyzed using a fluorescence scanner (Storm 860; Molecular Dynamics)

[2] = target: T1, RNAP holoenzyme; format: biochemical; conditions: FIG. 3F
Description: Following 15 min at 37° C., 0.5 μl 1 mg/ml heparin was added, and, following a further 2 min at 37° C., 1 μl of 0.25-5 mM (γ-AmNS)UTP (Molecular Probes) was added, and reaction mixtures were transferred to sub-micro fluorometer cuvettes (Starna Cells). Following 2 min at 37° C., RNA synthesis was initiated by addition of 2.5 μl 10 mM ApA, and fluorescence emission intensity was monitored 5 min at 37° C. [excitation wavelength=360 nm and emission wavelength=500 nm; excitation and emission slit widths=4 nm; QuantaMaster QM1 spectrofluorometer (PTI)]. The quantity of UMP incorporated into RNA was determined from the quantity of (γ-AmNS)UTP consumed, which, in turn, was calculated as follows (Schlageck et al., (1979) J. Biol. Chem. 254, 12074-12077): (γ-AmNS)UTPconsumed=[(γ-AmNS)UTP0](Ft−F0)/(12.4×F0) (1) where (γ-AmNS)UTP0 is the quantity of (γ-AmNS) UTP at time 0, F0 is the fluorescence emission intensity at time 0, and Ft is the fluorescence emission intensity at time t. Data were fit to full-competitive, partial-competitive, full-noncompetitive, partial-noncompetitive, full-uncompetitive, partial-uncompetitive, full-mixed, and partial-mixed models of inhibition as in the preceding section.

[3] = test system: Strain DH5α transformed with pRL663 or a pRL663 derivative
[4] = test system: bacterial RNAP; conditions: unpublished data

T1 sequence (P0A8V2 whole entry): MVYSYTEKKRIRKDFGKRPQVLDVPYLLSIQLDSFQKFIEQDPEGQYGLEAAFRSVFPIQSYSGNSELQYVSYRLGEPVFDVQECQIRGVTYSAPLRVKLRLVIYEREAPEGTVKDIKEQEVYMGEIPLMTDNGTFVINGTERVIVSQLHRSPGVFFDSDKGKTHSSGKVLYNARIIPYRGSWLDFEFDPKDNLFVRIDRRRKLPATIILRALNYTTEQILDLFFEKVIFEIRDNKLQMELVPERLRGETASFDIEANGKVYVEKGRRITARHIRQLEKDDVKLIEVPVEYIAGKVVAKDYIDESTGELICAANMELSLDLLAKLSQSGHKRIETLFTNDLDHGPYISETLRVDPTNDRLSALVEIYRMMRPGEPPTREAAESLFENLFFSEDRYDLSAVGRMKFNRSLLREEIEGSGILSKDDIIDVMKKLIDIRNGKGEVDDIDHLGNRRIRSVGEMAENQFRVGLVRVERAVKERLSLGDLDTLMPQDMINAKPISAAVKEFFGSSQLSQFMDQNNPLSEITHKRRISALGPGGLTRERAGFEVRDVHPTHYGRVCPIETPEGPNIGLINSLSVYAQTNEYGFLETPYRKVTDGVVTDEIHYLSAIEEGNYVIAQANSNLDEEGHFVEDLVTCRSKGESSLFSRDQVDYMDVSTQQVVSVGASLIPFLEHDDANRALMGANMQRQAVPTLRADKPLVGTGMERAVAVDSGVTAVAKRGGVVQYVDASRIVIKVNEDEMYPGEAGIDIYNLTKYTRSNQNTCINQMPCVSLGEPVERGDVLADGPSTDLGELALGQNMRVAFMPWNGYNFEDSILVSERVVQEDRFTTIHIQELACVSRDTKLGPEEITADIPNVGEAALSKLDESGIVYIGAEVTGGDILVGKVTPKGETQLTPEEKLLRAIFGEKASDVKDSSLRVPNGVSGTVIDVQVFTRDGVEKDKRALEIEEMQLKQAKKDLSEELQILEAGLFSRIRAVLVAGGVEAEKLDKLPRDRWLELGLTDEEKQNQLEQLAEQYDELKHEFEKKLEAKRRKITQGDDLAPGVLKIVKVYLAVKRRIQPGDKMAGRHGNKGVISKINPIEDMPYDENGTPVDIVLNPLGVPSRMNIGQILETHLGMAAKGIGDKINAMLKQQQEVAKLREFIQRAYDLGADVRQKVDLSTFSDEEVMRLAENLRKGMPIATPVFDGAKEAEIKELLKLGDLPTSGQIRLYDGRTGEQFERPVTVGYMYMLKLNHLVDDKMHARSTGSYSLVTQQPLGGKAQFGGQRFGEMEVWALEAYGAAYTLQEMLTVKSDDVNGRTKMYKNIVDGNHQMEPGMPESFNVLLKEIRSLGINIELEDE
T1 sequence (P00579 whole entry, further chain): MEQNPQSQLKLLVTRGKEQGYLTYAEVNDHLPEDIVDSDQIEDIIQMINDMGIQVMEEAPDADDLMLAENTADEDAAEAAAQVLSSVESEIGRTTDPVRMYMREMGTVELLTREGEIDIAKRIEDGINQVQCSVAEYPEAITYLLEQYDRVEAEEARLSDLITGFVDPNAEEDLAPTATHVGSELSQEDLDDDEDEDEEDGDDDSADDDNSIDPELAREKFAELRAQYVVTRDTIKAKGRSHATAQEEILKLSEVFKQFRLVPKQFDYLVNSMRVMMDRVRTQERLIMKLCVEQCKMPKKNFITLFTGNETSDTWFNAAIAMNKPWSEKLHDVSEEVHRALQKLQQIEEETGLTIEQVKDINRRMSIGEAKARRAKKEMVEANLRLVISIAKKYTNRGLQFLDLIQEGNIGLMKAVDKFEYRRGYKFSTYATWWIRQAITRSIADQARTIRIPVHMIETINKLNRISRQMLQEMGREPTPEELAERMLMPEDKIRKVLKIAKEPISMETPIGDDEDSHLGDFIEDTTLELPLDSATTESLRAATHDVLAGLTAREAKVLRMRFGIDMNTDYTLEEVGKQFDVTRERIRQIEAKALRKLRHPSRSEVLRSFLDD
T1 sequence (P0A7Z4 whole entry, further chain): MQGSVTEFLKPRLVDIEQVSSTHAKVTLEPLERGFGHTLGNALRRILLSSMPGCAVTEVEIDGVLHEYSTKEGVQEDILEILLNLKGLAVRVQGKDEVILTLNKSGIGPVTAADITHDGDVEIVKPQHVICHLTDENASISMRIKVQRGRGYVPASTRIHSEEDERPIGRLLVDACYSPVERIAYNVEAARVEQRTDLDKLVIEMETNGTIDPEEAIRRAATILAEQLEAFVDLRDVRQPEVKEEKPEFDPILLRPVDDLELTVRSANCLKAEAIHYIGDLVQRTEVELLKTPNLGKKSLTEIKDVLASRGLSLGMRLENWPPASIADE
T1 sequence (P0A800 whole entry, further chain): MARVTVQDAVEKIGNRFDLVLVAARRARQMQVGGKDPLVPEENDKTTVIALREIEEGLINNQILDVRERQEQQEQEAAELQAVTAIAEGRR
T1 sequence (P0A8T7 whole entry): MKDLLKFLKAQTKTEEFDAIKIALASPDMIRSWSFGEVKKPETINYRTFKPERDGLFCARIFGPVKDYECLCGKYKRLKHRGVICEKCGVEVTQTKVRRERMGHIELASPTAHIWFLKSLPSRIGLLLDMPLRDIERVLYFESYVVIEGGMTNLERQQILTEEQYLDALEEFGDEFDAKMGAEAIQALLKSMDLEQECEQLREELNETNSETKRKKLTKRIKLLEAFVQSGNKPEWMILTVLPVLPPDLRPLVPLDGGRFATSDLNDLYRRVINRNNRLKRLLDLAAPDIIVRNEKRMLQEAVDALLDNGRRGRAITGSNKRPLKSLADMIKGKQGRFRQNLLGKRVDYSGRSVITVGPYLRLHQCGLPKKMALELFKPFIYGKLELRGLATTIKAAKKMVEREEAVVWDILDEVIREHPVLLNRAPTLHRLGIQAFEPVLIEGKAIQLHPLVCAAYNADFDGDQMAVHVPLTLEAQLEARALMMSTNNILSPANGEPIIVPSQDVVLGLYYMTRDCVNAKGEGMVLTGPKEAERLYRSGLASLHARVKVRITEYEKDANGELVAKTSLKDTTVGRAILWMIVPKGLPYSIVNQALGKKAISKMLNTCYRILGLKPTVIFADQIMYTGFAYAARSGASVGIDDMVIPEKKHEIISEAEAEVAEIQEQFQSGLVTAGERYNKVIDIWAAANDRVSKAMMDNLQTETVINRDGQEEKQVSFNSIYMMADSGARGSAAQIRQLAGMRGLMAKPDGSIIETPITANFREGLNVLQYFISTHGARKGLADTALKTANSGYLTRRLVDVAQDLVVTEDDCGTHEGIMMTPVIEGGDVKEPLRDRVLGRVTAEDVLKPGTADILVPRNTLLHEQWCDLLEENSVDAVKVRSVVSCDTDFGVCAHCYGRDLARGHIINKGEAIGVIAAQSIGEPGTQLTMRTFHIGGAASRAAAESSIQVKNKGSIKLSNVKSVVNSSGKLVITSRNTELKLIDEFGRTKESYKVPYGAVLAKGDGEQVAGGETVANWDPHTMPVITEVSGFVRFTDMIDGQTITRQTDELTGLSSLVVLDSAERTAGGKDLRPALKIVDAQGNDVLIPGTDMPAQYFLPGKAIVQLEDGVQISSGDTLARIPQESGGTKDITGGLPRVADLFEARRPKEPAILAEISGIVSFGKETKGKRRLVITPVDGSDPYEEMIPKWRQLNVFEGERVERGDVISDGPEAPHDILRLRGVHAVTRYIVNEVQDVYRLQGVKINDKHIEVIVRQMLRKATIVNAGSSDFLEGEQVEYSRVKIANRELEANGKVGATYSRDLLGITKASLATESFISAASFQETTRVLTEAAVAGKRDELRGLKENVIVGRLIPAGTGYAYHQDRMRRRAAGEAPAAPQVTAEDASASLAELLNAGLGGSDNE

In the case of Microcin J25 [MccJ25], the “effect on formation of open complex” value [1] is reported as “no effect”, the Vmax ([2]; at 1 μM MccJ25) is reported as 5.3±2.8 mol/mol template/min and the Vmax ([2]; at 10 μM MccJ25) is reported as 2.4±2.9 mol/mol template/min. The “increase in MBC” value ([3]; 18 of 22 MccJ25-resistant mutants from random mutagenesis) was at least 50 fold, the “increase in MBC” value ([3]; all 22 MccJ25-resistant mutants from random mutagenesis) was at least 5 fold and the MBC ([3]; no substitution (wild-type β′), 2 h at 37° C.) was 0 µg/mL. The MBC ([3]; rpoB 543 Ala→Leu, 549 Asp→Tyr, multiple-substitution mutant) was 50 µg/mL, the MBC ([3]; rpoB 543 Ala→Pro, 546 Glu→Gly, multiple-substitution mutant) was 50 µg/mL and the MBC ([3]; rpoB 544 Gly→Asp, saturation mutagenesis) was 50 µg/mL. It also gave an MBC ([3]; rpoB 545 Phe→Leu, 546 Glu→Asp, multiple-substitution mutant) of 50 µg/mL, an MBC ([3]; rpoB 545 Phe→Ser, saturation mutagenesis) of 50 µg/mL and an MBC ([3]; rpoB 548 Arg→Gln, saturation mutagenesis) of 50 µg/mL. For the same substance, the MBC ([3]; rpoB 549 Asp→His, saturation mutagenesis) was 50 µg/mL, the MBC ([3]; rpoC 428 Thr→Asn, saturation mutagenesis) was 500 µg/mL and the MBC ([3]; rpoC 428 Thr→Ile, saturation mutagenesis) was 500 µg/mL. For the same substance, the MBC ([3]; rpoC 429 Leu→Gln, saturation mutagenesis) was 500 µg/mL, the MBC ([3]; rpoC 430 His→Tyr, saturation mutagenesis) was 500 µg/mL and the MBC ([3]; rpoC 493 Pro→Thr, 498 Pro→Thr, multiple-substitution mutant) was 100 µg/mL. For the same substance, the MBC ([3]; rpoC 498 Pro→Gln, saturation mutagenesis) was 1000 µg/mL, the MBC ([3]; rpoC 498 Pro→Leu, saturation mutagenesis) was 1000 µg/mL and the MBC ([3]; rpoC 503 Ser→Pro, saturation mutagenesis) was 500 µg/mL. For the same substance, the MBC ([3]; rpoC 503 Ser→Tyr, saturation mutagenesis) was 500 µg/mL, the MBC ([3]; rpoC 504 Gln→Arg, saturation mutagenesis) was 500 µg/mL and the MBC ([3]; rpoC 504 Gln→Glu, saturation mutagenesis) was 500 µg/mL. For the same substance, the MBC ([3]; rpoC 508 Leu→Val, saturation mutagenesis) was 50 µg/mL, the MBC ([3]; rpoC 680 Asn→Lys, saturation mutagenesis) was 500 µg/mL and the MBC ([3]; rpoC 684 Asp→Ala, saturation mutagenesis) was 1000 µg/mL. For the same substance, the MBC ([3]; rpoC 684 Asp→Glu, saturation mutagenesis) was 500 µg/mL, the MBC ([3]; rpoC 684 Asp→Tyr, saturation mutagenesis) was 500 µg/mL and the MBC ([3]; rpoC 684 Asp→Val, saturation mutagenesis) was 500 µg/mL. For the same substance, the MBC ([3]; rpoC 732 Gly→Asp, saturation mutagenesis) was 100 µg/mL, the MBC ([3]; rpoC 732 Gly→Asp, 733 Ser→Ala, multiple-substitution mutant) was 100 µg/mL and the MBC ([3]; rpoC 732 Gly→Asp, Gly→Thr, multiple-substitution mutant) was 500 µg/mL. It also gave an MBC ([3]; rpoC 733 Ser→Phe, saturation mutagenesis) of 100 µg/mL, an MBC ([3]; rpoC 733 Ser→Tyr, saturation mutagenesis) of 100 µg/mL and an MBC ([3]; rpoC 733 Ser→Val, saturation mutagenesis) of 500 µg/mL. The MBC ([3]; rpoC 733 Ser→Val, 734 Ala→Gly, multiple-substitution mutant) was 100 µg/mL, the MBC ([3]; rpoC 735 Ala→Δ, saturation mutagenesis) was 1000 µg/mL and the MBC ([3]; rpoC 736 Gln→Pro, saturation mutagenesis) was 500 µg/mL. For the same substance, the MBC ([3]; rpoC 738 Arg→Leu, saturation mutagenesis) was 50 µg/mL, the MBC ([3]; rpoC 744 Arg→His, saturation mutagenesis) was 50 µg/mL and the MBC ([3]; rpoC 744 Arg→Pro, saturation mutagenesis) was 50 µg/mL. It also gave an MBC ([3]; rpoC 748 Ala→Pro, saturation mutagenesis) of 100 µg/mL, an MBC ([3]; rpoC 775 Ser→Cys, saturation mutagenesis) of 500 µg/mL and an MBC ([3]; rpoC 776 Thr→Ile, saturation mutagenesis) of 500 µg/mL. For the same substance, the MBC ([3]; rpoC 777 His→Pro, saturation mutagenesis) was 500 µg/mL, the MBC ([3]; rpoC 777 His→Ser, 778 Gly→Ala, multiple-substitution mutant) was 500 µg/mL and the MBC ([3]; rpoC 777 His→Tyr, saturation mutagenesis) was 1000 µg/mL. It also gave an MBC ([3]; rpoC 779 Ala→Gly, saturation mutagenesis) of 500 µg/mL, an MBC ([3]; rpoC 779 Ala→Pro, saturation mutagenesis) of 500 µg/mL and an MBC ([3]; rpoC 779 Ala→Thr, saturation mutagenesis) of 1000 µg/mL. The MBC ([3]; rpoC 780 Arg→Cys, saturation mutagenesis) was 1000 µg/mL, the MBC ([3]; rpoC 782 Gly→Ala, saturation mutagenesis) was 1000 µg/mL and the MBC ([3]; rpoC 783 Leu→Pro, saturation mutagenesis) was 100 µg/mL. The MBC ([3]; rpoC 784 Ala→Glu, saturation mutagenesis) was 500 µg/mL, the MBC ([3]; rpoC 785 Asp→Gly, saturation mutagenesis) was 500 µg/mL and the MBC ([3]; rpoC 786 Thr→Ala, saturation mutagenesis) was 500 µg/mL. The MBC ([3]; rpoC 786 Thr→Ile, saturation mutagenesis) was 500 µg/mL, the MBC ([3]; rpoC 788 Leu→Met, saturation mutagenesis) was 1000 µg/mL and the MBC ([3]; rpoC 789 Lys→Arg, saturation mutagenesis) was 500 µg/mL. For the same substance, the MBC ([3]; rpoC 789 Lys→Asn, saturation mutagenesis) was 1000 µg/mL, the MBC ([3]; rpoC 789 Lys→Gln, saturation mutagenesis) was 1000 µg/mL and the MBC ([3]; rpoC 790 Thr→Ala, saturation mutagenesis) was 1000 µg/mL. For the same substance, the MBC ([3]; rpoC 790 Thr→Asn, saturation mutagenesis) was 500 µg/mL, the MBC ([3]; rpoC 790 Thr→Ile, saturation mutagenesis) was 1000 µg/mL and the MBC ([3]; rpoC 790 Thr→Ser, saturation mutagenesis) was 500 µg/mL. For the same substance, the MBC ([3]; rpoC 922 Cys→Tyr, saturation mutagenesis) was 500 µg/mL, the MBC ([3]; rpoC 926 Pro→Ser, saturation mutagenesis) was 500 µg/mL and the MBC ([3]; rpoC 927 Gly→Cys, saturation mutagenesis) was 1000 µg/mL. It also gave an MBC ([3]; rpoC 927 Gly→Ser, saturation mutagenesis) of 1000 µg/mL, an MBC ([3]; rpoC 930 Leu→Met, saturation mutagenesis) of 1000 µg/mL and an MBC ([3]; rpoC 931 Thr→Ala, saturation mutagenesis) of 1000 µg/mL. It also gave an MBC ([3]; rpoC 931 Thr→Ile, saturation mutagenesis) of 1000 µg/mL, an MBC ([3]; rpoC 932 Met→Ile, saturation mutagenesis) of 1000 µg/mL and an MBC ([3]; rpoC 933 Arg→Cys, saturation mutagenesis) of 1000 µg/mL. For the same substance, the MBC ([3]; rpoC 1136 Gly→Ala, saturation mutagenesis) was 500 µg/mL, the MBC ([3]; rpoC 1136 Gly→Cys, saturation mutagenesis) was 1000 µg/mL and the MBC ([3]; rpoC 1137 Gly→Ala, saturation mutagenesis) was 500 µg/mL. The MBC ([3]; rpoC 1137 Gly→Arg, saturation mutagenesis) was 1000 µg/mL, the MBC ([3]; rpoC 1240 Val→Glu, saturation mutagenesis) was 500 µg/mL and the MBC ([3]; rpoC 1241 Tyr→Cys, saturation mutagenesis) was 100 µg/mL. The MBC ([3]; rpoC 1241 Tyr→His, saturation mutagenesis) was 100 µg/mL, the MBC ([3]; rpoC 1241 Tyr→Ser, saturation mutagenesis) was 100 µg/mL and the MBC ([3]; rpoC 1244 Gln→Glu, saturation mutagenesis) was 100 µg/mL. For the same substance, the MBC ([3]; rpoC 1244 Gln→Leu, saturation mutagenesis) was 500 µg/mL, the MBC ([3]; rpoC 1244 Gln→Pro, saturation mutagenesis) was 100 µg/mL and the MBC ([3]; rpoC 1247 Lys→Gln, saturation mutagenesis) was 100 µg/mL. It also gave an MBC ([3]; rpoC 1247 Lys→Glu, saturation mutagenesis) of 100 µg/mL, an MBC ([3]; rpoC 1248 Ile→Ser, saturation mutagenesis) of 100 µg/mL and an MBC ([3]; β′ 424 Asn→Ser, random mutagenesis, single mutant constructed using site-directed mutagenesis) of 100 µg/mL. The MBC ([3]; β′ 428 Thr→Ile, random mutagenesis) was 500 µg/mL, the MBC ([3]; β′ 430 His→Leu, random mutagenesis) was 500 µg/mL and the MBC ([3]; β′ 464 Asp→Gly, random mutagenesis) was 0 µg/mL. For the same substance, the MBC ([3]; β′ 469 His→Arg, random mutagenesis) was 0 µg/mL, the MBC ([3]; β′ 504 Gln→Arg, random mutagenesis) was 500 µg/mL and the MBC ([3]; β′ 733 Ser→Phe, random mutagenesis) was 500 µg/mL. It also gave an MBC ([3]; β′ 738 Arg→Leu, random mutagenesis) of 0 µg/mL, an MBC ([3]; β′ 776 Thr→Ile, random mutagenesis) of 500 µg/mL and an MBC ([3]; β′ 779 Ala→Thr, random mutagenesis) of 1000 µg/mL. For the same substance, the MBC ([3]; β′ 780 Arg→Cys, random mutagenesis) was 1000 µg/mL, the MBC ([3]; β′ 782 Gly→Ala, random mutagenesis) was 1000 µg/mL and the MBC ([3]; β′ 785 Asp→Gly, random mutagenesis) was 500 µg/mL. It also gave an MBC ([3]; β′ 786 Thr→Ile, random mutagenesis) of 500 µg/mL, an MBC ([3]; β′ 789 Lys→Arg, random mutagenesis) of 500 µg/mL and an MBC ([3]; β′ 789 Lys→Gln, random mutagenesis) of 1000 µg/mL. The MBC ([3]; β′ 869 Cys→Arg, random mutagenesis) was 1000 µg/mL, the MBC ([3]; β′ 933 Arg→Cys, random mutagenesis) was 1000 µg/mL and the MBC ([3]; β′ 1244 Gln→Leu, random mutagenesis) was 500 µg/mL. For the same substance, the cross-resistance with rifampicin [4] was “do not exhibit cross-resistance with rifampicin”.
